US9512178B2, “Neurogenic brain-derived neurotrophic factor peptides” (Research Foundation for Mental Hygiene, Inc., priority 2012, dated 2016)

How the values were obtained:
[1] = system: E18 primary hippocampal neurons; assay: Western blots of neuronal markers, densitometry; format: cell-based, mouse; settings: 5 days
Protocol: Following treatment in 6-well plates, cells were washed 2× in glucose buffered saline, GBS (5.4 mM KCl, 138 mM NaCl, 22 mM glucose, and 2 mM Na—KPO pH 7.2), and then lysed by 5 min incubation on ice in 100 or 150 μl of ice-cold RIPA buffer (PBS, 1% w/v NP-40 from Fisher Scientific, 0.1% w/v SDS, and 0.5% w/v sodium desoxycholate) containing 1 mM AEBSF (Gold Biotechnology, St. Louis, Mo., USA), 10 μg/ml aprotinin (Sigma-Aldrich, St. Louis, Mo., USA), and 20 μg/ml of leupeptin and pepstatin (US Biochemicals, Cleveland, Ohio, USA), and phosphatase inhibitors: NaF, Na orthovanadate, (3-glycerophosphate, and microcystein (Sigma-Aldrich, St. Louis, Mo., USA). Extracts were prepared by collecting and pooling a minimum of 2 wells by scraping, and lysates were centrifuged at 20,000×g for 10 min at 4° C. Protein concentration of each cell lysate was determined using the BCA kit (Thermo Scientific, Rockford, Ill., USA). The lysates (7.5-20 μg total protein) were separated on 10% SDS-PAGE gels (except for BDNF where 12% gels were employed) and transferred to 0.45 μm PVDF membrane (Pall, Pensacola, Fla., USA) for probing with antibodies as noted. Blots were blocked for 1 hr at 37° C. in 1×TBST (0.05% Tween 20 in TBS) containing 5% w/v blotting grade dry milk (Bio-rad, Hercules, Calif., USA), incubated in primary antibody overnight in blocking buffer at 4° C., washed 3×10 min in TBST at room temperature, followed by incubation with secondary antibody, i.e., peroxidase-conjugated anti-mouse or anti rabbit IgG (Jackson ImmunoResearch Laboratories, West Grove, Pa., USA) diluted in blocking buffer. Blots were washed 3×10 min in TBST and immunoreactive protein bands were visualized with enhanced chemiluminescence (ECL) reagents (Pierce, Rockford, Ill., USA). The ECL films of the blots were scanned and analyzed using Multi Gauge software version 3.0 (Fujifilm, Tokyo, Japan).
The following primary antibodies were used: rabbit polyclonal anti-NFM (1:1000; Chemicon/Millipore, Billerica, Mass., USA); mouse monoclonal anti-NeuN, clone A60 (1:500; Millipore, Billerica, Mass., USA); rabbit polyclonal anti-Tuj-1, (3—III-tubulin (Covance; 1:800, Emeryville, Calif., USA); mouse monoclonal SMI 52 to the adult isoforms of MAP-2, MAP2a,b (1:1000; Covance, Emeryvilly, Calif., USA); rabbit polyclonal anti-Synapsin I (1:2000; Stressgen, Farmingdale, N.Y., USA); rabbit monoclonal anti-PSD95 (1:1000; Cell signaling, Danvers, Mass., USA); anti tau 92e (1:10000); mouse monoclonal anti-BDNF (1:1000; Calbiochem, Gibbstown, N.J., USA); rabbit polyclonal anti-TrkB (total) (1:500; Santa Cruz Biotechnology, Santa Cruz, Calif., USA); rabbit polyclonal anti-pTrkB (Tyr706) (1:400; Santa Cruz Biotechnology, Santa Cruz, Calif., USA), TrkC (1:1000; Cruz Biotechnology, Santa Cruz, Calif., USA); and pTrkY490 (1:500; Upstate USA Inc., Charlottesville, Va., USA). For loading control, the blots were developed with rabbit polyclonal antibody to GAPDH (1:2000; Santa Cruz Biotechnology, Santa Cruz, Calif., USA).
To biochemically study the effect of BDNF peptides in inducing expression of neuronal markers, protein samples were recovered from cells treated with peptides B-5, B-4, B-3, or vehicle for five days. As a positive control, protein samples were collected from cells treated with BDNF at 20 ng/ml (0.79 nM) or 100 ng/ml (3.95 nM) (FIG. 3D, E). Western blots of the cell lysates were developed with antibodies to Synapsin I (presynaptic marker), PSD95 (postsynaptic marker), NeuN (late neuronal marker), NFM (early neuronal marker), MAP2 (dendritic marker), 0-IIItubulin (early neuronal marker), and tau 92e (axonal marker).

[2] = system: BDNF and TrkB; assay: Induction of BDNF and TrkB expression after pre-treatment with CHX or K252a; format: cell-based, mouse; settings: 0.1 μM, two days
Protocol: Peptides were dissolved in water in serial dilutions of 10 mM, 1 mM, 100 μM and 10 μM from which the necessary amount was added directly to the culture medium to a final concentration of 0.05 μM, 1 μM, or 10 μM. The BDNF (Peprotech, NJ, USA) was used as a reference in concentrations of 20 ng/ml (0.79 nM) and 100 ng/ml (3.95 nM). Cycloheximide (CHX) (Sigma-Aldrich, St Louis, Mo., USA) was used for blocking protein synthesis. CHX original stock was 100 mg/ml (355.4 mM) in DMSO; from a second stock of 35.54 mM in DMSO, the dilutions were made to the final concentrations of 100 μM. The K252a (CALBIOCHEM/EMD) was used to inhibit the TrkB Receptor. From a stock of 100 μM in DMSO, K252a was diluted to a final working concentration of 200 nM. The E18 primary hippocampal cells were pre-treated with CHX or K252a 1 h prior to the addition of the peptides or BDNF and a time course of these treatments for 15 min, 60 min and 2 days was studied.
To evaluate whether the effect of B-5 and B-3 in induction of the expression of BDNF and TrkB was via the activation of the TrkB receptor and required signal transduction via TrkB and new protein synthesis, mouse embryonic E18 cultured hippocampal cells were pre-treated with the protein synthesis inhibitor, cycloheximide (CHX) or the Trk inhibitor K252a for 1 h, and then added Peptide B-5 at a concentration of 0.1 μM (the dose that gave the maximum induction of BDNF expression, FIGS. 5A and B) or BDNF 20 ng/ml as a positive control (FIG. 7C,D). A time course of these treatments was studied with Peptide B-5 or BDNF for 15 min, 60 min and two days.

Row | Substance | expression of NeuN (Western blot) ([1]; 0.1 μM) | expression of NeuN (Western blot) ([1]; 1 μM) | level of tau (92e antibody, Western blot) [1] | MAP2 expression (Western blot) ([1]; 0.1 μM) | NFM expression (Western blot) ([1]; 0.1 μM) | expression of PSD95 (Western blot) ([1]; 1 μM) | levels of 0-IIItubulin (Western blot) ([1]; 1 μM, vs vehicle) | increase in the expression of BDNF in the presence of CHX ([2]; CHX pre-treatment 1 h) | increase in the expression of TrkB in the presence of CHX ([2]; CHX pre-treatment 1 h) | induction of the expression of BDNF in cells treated with K252a ([2]; K252a pre-treatment 1 h) | induction of the expression of TrkB in cells treated with K252a ([2]; K252a pre-treatment 1 h)
1 | Ac-S-KKR-CONH2 [Peptide B-3] | increased the expression of NeuN | increased the expression of NeuN | Neither BNDF nor peptides B-3, B-4 or B-5 had any significant effect | – | – | – | – | – | – | – | –
2 | Ac-I-K-R-G-CONH2 [Peptide B-5] | – | increased the expression of NeuN | Neither BNDF nor peptides B-3, B-4 or B-5 had any significant effect | increased significantly | increased NFM expression | significant increment | this increase was not significant | inhibition of the increase | inhibition of the increase | no more significant induction | no more significant induction
